# In ChEMBL document CHEMBL6115028, “An Amazing 30-Year Journey around the DABO Family: A Medicinal Chemistry Lesson on a Versatile Class of Non-nucleoside HIV-1 Reverse Transcriptase Inhibitors” (J Med Chem, 2025):
# Key:
# Bacillus cereus = assay: Antibacterial activity against Bacillus cereus ATCC 4342 assessed as inhibition of microbial growth incubated for 24 hrs by microdilution method; assay type: functional
# Bacillus subtilis = assay: Antibacterial activity against Bacillus subtilis ATCC 6633 assessed as bacterial growth inhibition measured after 48 hrs by resazurin assay; assay type: functional
# Staphylococcus aureus [1] = assay: Antibacterial activity against Staphylococcus aureus ATCC 25923 assessed as reduction in bacterial growth incubated for 18 to 20 hrs by broth microdilution assay; assay type: functional; details: time 18-20 hrs
# Candida albicans = assay: Antifungal activity against Candida albicans ATCC 10231 assessed as growth inhibition measured after 48 hrs by CLSI based method; assay type: functional
# Aspergillus niger = assay: Antifungal activity against Aspergillus niger assessed as reduction in fungal growth; assay type: functional
# dengue virus type 2 = assay: Antiviral activity Dengue virus 2; assay type: functional, organism-based
# dengue virus type 4 = assay: Antiviral activity Dengue virus 4; assay type: functional, organism-based
# dengue virus type 1 = assay: Antiviral activity Dengue virus 1; assay type: functional, organism-based
# dengue virus type 3 = assay: Antiviral activity Dengue virus 3; assay type: functional, organism-based
# [2] = Cytotoxicity against African green monkey Vero cells; assay type: toxicity, cell-based; details: chlorocebus sabaeus
# [3] = Solubility in water; assay type: physicochemical
# [4] = system: Human immunodeficiency virus 1; assay: Antiviral activity against HIV-1 IIIB infected in […] cells assessed as reduction in viral replication measured for 72 hrs; assay type: functional, organism-based; details: Human immunodeficiency virus 1, IIIB
# [5] = target: T1, Human immunodeficiency virus type 1 reverse transcriptase (Human immunodeficiency virus 1, UniProt Q72547); assay: Inhibition of HIV-1 Reverse transcriptase
# [6] = Oral bioavailability in rat; assay type: ADME, organism-based; details: in vivo
# Hepatitis B virus = assay: Antiviral activity against Hepatitis B virus infected in human HepG2.2.15 cells assessed as inhibition of HBV DNA production by qRT-PCR analysis; assay type: functional, organism-based
# HepG2 2.2.15 = assay: Cytotoxicity against human HepG2.2.15 cells assessed as reduction in cell growth by MTT assay; assay type: functional
# [7] = Selectivity index, ratio of CC50 for human C8166 cells to EC50 for antiviral activity against HIV-1 IIIB infected in human C8166 cells; assay type: toxicity, cell-based; details: read-out: Ratio CC50/EC50
# [8] = system: Human immunodeficiency virus 1; assay: Antiviral activity against wild type HIV-1 IIIB infected in human MT4 cells; assay type: functional, organism-based; details: Human immunodeficiency virus 1, IIIB
# [9] = system: Human immunodeficiency virus 1; assay: Antiviral activity against HIV-1 IIIB infected in human C8166 cells assessed as reduction in virus-induced cytopathic effect incubated for 3 days by MTT assay; assay type: functional, organism-based; details: Human immunodeficiency virus 1, IIIB, C8166, 72 h
# C8166 = assay: Cytotoxicity against human C8166 cells assessed as reduction in cell viability incubated for 72 hrs by MTT assay; assay type: functional
# [10] = Cytotoxicity against African green monkey Vero cells assessed as reduction in cell viability measured after 96 hrs by MTT assay; assay type: toxicity, cell-based; details: chlorocebus sabaeus
# [11] = Inhibition of Hepatitis C virus NS5B RNA dependent RNA polymerase; design: species or system Hepacivirus hominis
# Zika virus = assay: Antiviral activity against Zika virus infected in Vero cells assessed as reduction in viral DNA replication; assay type: functional, organism-based
# [12] = Cytotoxicity against African green monkey Vero cells assessed as reduction in cell growth measured after 96 hrs by MTT assay; assay type: toxicity, cell-based; details: chlorocebus sabaeus
# [13] = system: Human immunodeficiency virus 1; assay: Antiviral activity against HIV-1 infected in human MT4 cells assessed as reduction in virus induced cytopathic effect measured for 4 days by MTT assay; assay type: functional, organism-based; details: Human immunodeficiency virus 1, MT4, 96 h
# MT4 = assay: Cytotoxicity against human MT4 cells assessed as reduction in cell viability by MTT assay; assay type: functional
# [14] = Selectivity index, ratio of CC50 for human MT4 cells to EC50 for antiviral activity against HIV-1 infected in human MT4 cells; assay type: toxicity, cell-based; details: read-out: Ratio CC50/EC50
# [15] = target: T1, Human immunodeficiency virus type 1 reverse transcriptase; assay: Inhibition of recombinant HIV-1 reverse transcriptase associated RNA-dependent DNA polymerase activity
# [16] = Toxicity in human C8166 cells assessed as reduction in cell viability incubated for 72 hrs by MTT assay; assay type: cell-based; details: read-out: TD50
# Staphylococcus aureus [17] = assay: Antibacterial activity against Staphylococcus aureus assessed as reduction in microbial growth measured for 18 hrs by CLSI based broth microdilution method; assay type: functional
# [18] = Toxicity in African green monkey Vero cells assessed as reduction in cell viability incubated for 72 hrs by MTT assay; assay type: cell-based; details: chlorocebus sabaeus, read-out: TD50
# [19] = system: Human immunodeficiency virus 1; assay: Antiviral […] activity against HIV-1 A17 harboring reverse transcriptase K103N/Y181C double mutant infected in human C8166 cells assessed as reduction in virus-induced cytopathic effect incubated for 3 days by MTT assay; assay type: functional, organism-based; details: Human immunodeficiency virus 1, A17, C8166, 72 h
# [20] = system: Human immunodeficiency virus 1; assay: Antiviral wild type activity against HIV-1 WAN infected in human PBMC cells assessed as reduction in virus-induced cytopathic effect incubated for 3 days by MTT assay; assay type: functional, organism-based; details: Human immunodeficiency virus 1, WAN, 72 h
# [21] = system: Human immunodeficiency virus 1; assay: Antiviral wild type activity against HIV-1 Ba-L infected in human TZM-bl cells assessed as reduction in virus-induced cytopathic effect incubated for 3 days by MTT assay; assay type: functional, organism-based; details: Human immunodeficiency virus 1, Ba-L, 72 h
# [22] = system: Human immunodeficiency virus 1; assay: Antiviral wild type activity against HIV-1 TC-1 infected in human PBMC cells assessed as reduction in virus-induced cytopathic effect incubated for 3 days by MTT assay; assay type: functional, organism-based; details: Human immunodeficiency virus 1, TC-1, PBMC, 72 h
# [23] = system: Human immunodeficiency virus 1; assay: Antiviral wild type activity against HIV-1 IIIB infected in human C8166 cells assessed as reduction in virus-induced cytopathic effect incubated for 3 days by MTT assay; assay type: functional, organism-based; details: Human immunodeficiency virus 1, IIIB, C8166, 72 h
# [24] = Cytotoxicity against African green monkey Vero cells assessed as reduction in cell viability incubated for 72 hrs by MTT assay; assay type: toxicity, cell-based; details: chlorocebus sabaeus
# [25] = Selectivity index, ratio of CC50 for Vero cells to EC50 for antiviral activity against HIV-1 infected in Vero cells; assay type: toxicity, cell-based; details: monkey, read-out: Ratio CC50/EC50
structure (smiles),measurement,setting,value
CCc1c(Cc2ccc3c(c2)OCO3)nc(SCCCN2C(=O)c3ccccc3C2=O)[nH]c1=O,MIC,Bacillus cereus,75 µg/mL
same,MIC,Bacillus subtilis,100 µg/mL
same,MIC,Staphylococcus aureus [1],25 µg/mL
same,MIC,Candida albicans,25 µg/mL
same,MIC,Aspergillus niger,75 µg/mL
CCc1c(CC2CCCCC2)nc(SCc2n[nH]c(-c3ccc(F)cc3)c2Cl)[nH]c1=O,EC50,dengue virus type 2,13.2 µM
same,EC50,dengue virus type 4,11.4 µM
same,EC50,dengue virus type 1,17.5 µM
same,EC50,dengue virus type 3,6.8 µM
same,CC50,[2],> 200 µM
CCc1c(Cc2ccc3c(c2)OCO3)nc(SCCN(C)C)[nH]c1=O,MIC,Bacillus cereus,100 µg/mL
same,MIC,Bacillus subtilis,50 µg/mL
same,MIC,Staphylococcus aureus [1],25 µg/mL
same,MIC,Candida albicans,50 µg/mL
same,MIC,Aspergillus niger,75 µg/mL
CCc1c(CC2CCCCC2)nc(SCC(=O)c2ccc(OP(=O)(OC)OC)cc2)[nH]c1=O,solubility,[3],6.4 µM
same,EC50,[4],0.01 µM
same,IC50,[5],0.75 µM
same,bioavailability,[6],14.6%
O=c1[nH]c(SC2OC[C@H](O)[C@@H](O)[C@@H]2O)nc(Cc2ccccc2)c1Cc1ccccc1 (some centres undefined),EC50,Hepatitis B virus,0.2 µM
same,CC50,HepG2 2.2.15,> 100 µM
CCc1c(CC23CC4CC(CC(C4)C2)C3)nc(SCC(=O)c2ccccc2)[nH]c1=O,selectivity ratio,[7],107
same,EC50,[8],0.19 µM
same,EC50,[9],0.19 µM
same,CC50,C8166,20.4 µM
CCc1c(CC2CCCCC2)nc(SCC(=O)Nc2cc(F)cc(F)c2)[nH]c1=O,CC50 at 96 h,[10],> 10 µM
same,IC50,[11],0.089 µM
same,EC50,Zika virus,> 50 µM
same,CC50 at 96 h,[12],60.2 µM
CCC(C)Oc1nc(N)cc(S(=O)(=O)c2cccc(C)c2)n1 (centres undefined),EC50,[13],4.7 µM
same,CC50,MT4,> 200 µM
same,selectivity ratio,[14],> 43
same,IC50,[15],26.5 µM
CCc1c(CC23CC4CC(CC(C4)C2)C3)nc(SCC(=O)c2ccc(OC)cc2)[nH]c1=O,selectivity ratio,[7],172
same,EC50,[8],0.1 µM
same,EC50,[9],0.1 µM
same,CC50,C8166,17.2 µM
COc1ccc(C(Cl)(Cl)c2cc(Cl)nc(OC)n2)cc1,CC50 at 72 h,[16],25 µg/mL
same,MIC,Staphylococcus aureus [17],6.2 µg/mL
same,CC50 at 72 h,[18],12.5 µg/mL
CCc1c(CC2CCCCC2)nc(SCc2cc(-c3ccc(SC)cc3)[nH]n2)[nH]c1=O,EC50,[19],4.87 µM
same,EC50,[9],0.011 µM
same,EC50,[20],0.165 µM
same,EC50,[21],0.193 µM
same,EC50,[22],0.055 µM
same,EC50,[23],0.018 µM
Cc1c(Sc2ccccc2)n(COCCO)c(=O)[nH]c1=O [HEPT],CC50 at 72 h,[24],740 µM
same,selectivity ratio,[25],106
same,EC50,[4],7 µM
